Measurements: ChEMBL document CHEMBL4145553, “Design, synthesis, and biological evaluation of novel amide and hydrazide based thioether analogs targeting Histone deacteylase (HDAC) enzymes” (Eur J Med Chem, 2018)
The source made the active and inactive calls. No cut-off for these calls is given here.

Columns and labels:
HOP-62 = experiment: Growth inhibition of human HOP62 cells assessed as cell growth at 10^-5 M incubated for 48 hrs by sulforhodamine B assay relative to control; format: functional; settings: HOP-62, 48 h, read-out: Activity
KM12 = experiment: Growth inhibition of human KM12 cells assessed as cell growth at 10^-4 M incubated for 48 hrs by sulforhodamine B assay relative to control; format: functional; settings: KM12, 48 h, read-out: Activity
U-251 [1] = experiment: Growth inhibition of human U251 cells assessed as cell growth at 10^-6 M incubated for 48 hrs by sulforhodamine B assay relative to control; format: functional; settings: U-251, 48 h, read-out: Activity
A498 = experiment: Growth inhibition of human A498 cells assessed as cell growth at 10^-6 M incubated for 48 hrs by sulforhodamine B assay relative to control; format: functional; settings: A498, 48 h, read-out: Activity
UACC-257 = experiment: Growth inhibition of human UACC257 cells assessed as cell growth at 10^-5 M incubated for 48 hrs by sulforhodamine B assay relative to control; format: functional; settings: UACC-257, 48 h, read-out: Activity
A549 [2] = experiment: Growth inhibition of human A549/ATCC cells assessed as cell growth at 10^-7 M incubated for 48 hrs by sulforhodamine B assay relative to control; format: functional; settings: A549, 48 h, read-out: Activity
MOLT-4 = experiment: Growth inhibition of human MOLT4 cells incubated for 48 hrs by sulforhodamine B assay; format: functional; settings: MOLT-4, 48 h
A549 [3] = experiment: Growth inhibition of human A549/ATCC cells assessed as cell growth at 10^-4 M incubated for 48 hrs by sulforhodamine B assay relative to control; format: functional; settings: A549, 48 h, read-out: Activity
NCI-H460 = experiment: Growth inhibition of human NCI-H460 cells assessed as cell growth at 10^-7 M incubated for 48 hrs by sulforhodamine B assay relative to control; format: functional; settings: NCI-H460, 48 h, read-out: Activity
SF-539 = experiment: Growth inhibition of human SF539 cells assessed as cell growth at 10^-8 M incubated for 48 hrs by sulforhodamine B assay relative to control; format: functional; settings: SF-539, 48 h, read-out: Activity
SR [4] = experiment: Growth inhibition of human SR cells assessed as cell growth at 10^-7 M incubated for 48 hrs by sulforhodamine B assay relative to control; format: functional; settings: read-out: Activity
SR [5] = experiment: Growth inhibition of human SR cells assessed as cell growth at 10^-8 M incubated for 48 hrs by sulforhodamine B assay relative to control; format: functional; settings: read-out: Activity
SK-MEL-5 = experiment: Growth inhibition of human SK-MEL-5 cells assessed as cell growth at 10^-4 M incubated for 48 hrs by sulforhodamine B assay relative to control; format: functional; settings: SK-MEL-5, 48 h, read-out: Activity
NCI/ADR-RES = experiment: Growth inhibition of human NCI/ADR-RES cells assessed as cell growth at 10^-5 M incubated for 48 hrs by sulforhodamine B assay relative to control; format: functional; settings: read-out: Activity
SNB-75 = experiment: Growth inhibition of human SNB75 cells assessed as cell growth at 10^-7 M incubated for 48 hrs by sulforhodamine B assay relative to control; format: functional; settings: SNB-75, 48 h, read-out: Activity
MDA-MB-468 = experiment: Growth inhibition of human MDA-MB-468 cells assessed as cell growth at 10^-4 M incubated for 48 hrs by sulforhodamine B assay relative to control; format: functional; settings: MDA-MB-468, 48 h, read-out: Activity
RXF 393 [6] = experiment: Growth inhibition of human RXF393 cells assessed as cell growth at 10^-4 M incubated for 48 hrs by sulforhodamine B assay relative to control; format: functional; settings: RXF 393, 48 h, read-out: Activity
UO-31 = experiment: Growth inhibition of human UO31 cells assessed as cell growth at 10^-6 M incubated for 48 hrs by sulforhodamine B assay relative to control; format: functional; settings: UO-31, 48 h, read-out: Activity
SK-MEL-2 = experiment: Growth inhibition of human SK-MEL-2 cells assessed as cell growth at 10^-7 M incubated for 48 hrs by sulforhodamine B assay relative to control; format: functional; settings: SK-MEL-2, 48 h, read-out: Activity
U-251 [7] = experiment: Growth inhibition of human U251 cells assessed as cell growth at 10^-8 M incubated for 48 hrs by sulforhodamine B assay relative to control; format: functional; settings: U-251, 48 h, read-out: Activity
MDA-MB-435 [8] = experiment: Induction of apoptosis in human MDA-MB-435 cells assessed as increase in caspase-9 expression by qRT-PCR method; format: functional, cell-based
OVCAR-3 = experiment: Growth inhibition of human OVCAR3 cells assessed as cell growth at 10^-8 M incubated for 48 hrs by sulforhodamine B assay relative to control; format: functional; settings: OVCAR-3, 48 h, read-out: Activity
NCI-H522 = experiment: Growth inhibition of human NCI-H522 cells assessed as cell growth at 10^-8 M incubated for 48 hrs by sulforhodamine B assay relative to control; format: functional; settings: NCI-H522, 48 h, read-out: Activity
TK-10 [9] = experiment: Growth inhibition of human TK10 cells assessed as cell growth at 10^-7 M incubated for 48 hrs by sulforhodamine B assay relative to control; format: functional; settings: TK-10, 48 h, read-out: Activity
RXF 393 [10] = experiment: Growth inhibition of human RXF393 cells assessed as cell growth at 10^-7 M incubated for 48 hrs by sulforhodamine B assay relative to control; format: functional; settings: RXF 393, 48 h, read-out: Activity
MDA-MB-435 [11] = experiment: Cell cycle arrest in human MDA-MB-435 cells assessed as accumulation at G1-phase by propidium iodide staining based flow cytometry (reference value: 69.15%); format: functional
SK-OV-3 = experiment: Growth inhibition of human SKOV3 cells assessed as cell growth at 10^-6 M incubated for 48 hrs by sulforhodamine B assay relative to control; format: functional; settings: SK-OV-3, 48 h, read-out: Activity
HCT-15 = experiment: Growth inhibition of human HCT15 cells assessed as cell growth at 10^-6 M incubated for 48 hrs by sulforhodamine B assay relative to control; format: functional; settings: HCT-15, 48 h, read-out: Activity
SN12C = experiment: Growth inhibition of human SN12C cells assessed as cell growth at 10^-5 M incubated for 48 hrs by sulforhodamine B assay relative to control; format: functional; settings: read-out: Activity
MCF7 = experiment: Growth inhibition of human MCF7 cells assessed as cell growth at 10^-4 M incubated for 48 hrs by sulforhodamine B assay relative to control; format: functional; settings: MCF7, 48 h, read-out: Activity
TK-10 [12] = experiment: Growth inhibition of human TK10 cells incubated for 48 hrs by sulforhodamine B assay; format: functional; settings: TK-10, 48 h
NCI-H226 = experiment: Growth inhibition of human NCI-H226 cells assessed as cell growth at 10^-6 M incubated for 48 hrs by sulforhodamine B assay relative to control; format: functional; settings: NCI-H226, 48 h, read-out: Activity
[13] = read-out: LC50 (the source's name)
[14] = read-out: pLC50 (the source's name) (converted)

CCS/C(Nc1ccccc1)=C(\C#N)C(=O)N/N=C\c1ccc(Cl)cc1Cl
growth at 10 µM (HOP-62): 29% | growth at 100 µM (KM12): 22% | growth at 1 µM (U-251 [1]): 94% | growth at 1 µM (A498): 68% | growth at 10 µM (UACC-257): 61% | growth at 0.1 µM (A549 [2]): 92% | GI50 (MOLT-4; read-out: GI50): 3.48 µM | CC50 (MOLT-4; [13]): > 100 µM | TGI (MOLT-4; read-out: TGI): > 100 µM | GI50 (MOLT-4; read-out: pGI50 (converted)): 3.47 µM | CC50 (MOLT-4; [14]): > 100 µM | TGI (MOLT-4; read-out: pTGI): > 100 µM | growth at 100 µM (A549 [3]): 18% | growth at 0.1 µM (NCI-H460): 98% | growth at 0.01 µM (SF-539): 105% | growth at 0.1 µM (SR [4]): 80% | growth at 0.01 µM (SR [5]): 91% | growth at 100 µM (SK-MEL-5): -14% | growth at 10 µM (NCI/ADR-RES): 13% | growth at 0.1 µM (SNB-75): 78% | growth at 100 µM (MDA-MB-468): -7% | growth at 100 µM (RXF 393 [6]): -22% | growth at 1 µM (UO-31): 86% | growth at 0.1 µM (SK-MEL-2): 101% | growth at 0.01 µM (U-251 [7]): 101% | Activity (MDA-MB-435 [8]): Active | growth at 0.01 µM (OVCAR-3): 102% | growth at 0.01 µM (NCI-H522): 109% | growth at 0.1 µM (TK-10 [9]): 91% | growth at 0.1 µM (RXF 393 [10]): 87% | Activity (MDA-MB-435 [11]): 61.56% | growth at 1 µM (SK-OV-3): 92% | growth at 1 µM (HCT-15): 77% | growth at 10 µM (SN12C): 41% | growth at 100 µM (MCF7): 9% | GI50 (TK-10 [12]; read-out: GI50): 10.2 µM | CC50 (TK-10 [12]; [13]): > 100 µM | TGI (TK-10 [12]; read-out: TGI): > 100 µM | GI50 (TK-10 [12]; read-out: pGI50 (converted)): 10.2 µM | CC50 (TK-10 [12]; [14]): > 100 µM | TGI (TK-10 [12]; read-out: pTGI): > 100 µM | growth at 1 µM (NCI-H226): 85%

CCS/C(Nc1ccccc1)=C(\C#N)C(=O)Nc1ccc(OC)cc1
growth at 10 µM (HOP-62): 41% | growth at 100 µM (KM12): 7% | growth at 1 µM (U-251 [1]): 94% | growth at 1 µM (A498): 78% | growth at 10 µM (UACC-257): 56% | growth at 0.1 µM (A549 [2]): 94% | GI50 (MOLT-4; read-out: GI50): 2.61 µM | CC50 (MOLT-4; [13]): > 100 µM | TGI (MOLT-4; read-out: TGI): > 100 µM | GI50 (MOLT-4; read-out: pGI50 (converted)): 2.63 µM | CC50 (MOLT-4; [14]): > 100 µM | TGI (MOLT-4; read-out: pTGI): > 100 µM | growth at 100 µM (A549 [3]): 15% | growth at 0.1 µM (NCI-H460): 98% | growth at 0.01 µM (SF-539): 94% | growth at 0.1 µM (SR [4]): 85% | growth at 0.01 µM (SR [5]): 98% | growth at 100 µM (SK-MEL-5): -58% | growth at 10 µM (NCI/ADR-RES): 18% | growth at 0.1 µM (SNB-75): 84% | growth at 100 µM (MDA-MB-468): -24% | growth at 100 µM (RXF 393 [6]): -20% | growth at 1 µM (UO-31): 87% | growth at 0.1 µM (SK-MEL-2): 102% | growth at 0.01 µM (U-251 [7]): 97% | Activity (MDA-MB-435 [8]): Active | growth at 0.01 µM (OVCAR-3): 97% | growth at 0.01 µM (NCI-H522): 107% | growth at 0.1 µM (TK-10 [9]): 95% | growth at 0.1 µM (RXF 393 [10]): 100% | Activity (MDA-MB-435 [11]): 51.68% | growth at 1 µM (SK-OV-3): 93% | growth at 1 µM (HCT-15): 53% | growth at 10 µM (SN12C): 37% | growth at 100 µM (MCF7): 6% | GI50 (TK-10 [12]; read-out: GI50): 24.3 µM | CC50 (TK-10 [12]; [13]): > 100 µM | TGI (TK-10 [12]; read-out: TGI): > 100 µM | GI50 (TK-10 [12]; read-out: pGI50 (converted)): 24.5 µM | CC50 (TK-10 [12]; [14]): > 100 µM | TGI (TK-10 [12]; read-out: pTGI): > 100 µM | growth at 1 µM (NCI-H226): 88%
